Measurements: US10550153B2, “Peptide or pharmaceutically acceptable salt thereof, or prodrug thereof” (Tokyo University of Pharmacy & Life Sciences, priority 2017, dated 2020)
“Also recorded” adds a separate entry of the source. Where a SMILES comes first, the peptide text is derived from it. [ ]: non-standard residue; d: D form. The star is where a group is joined. Propanoyl(3-cHex) = O=C(CCC1CCCCC1)*; Orn = NCCC[C@H](N)C(=O)O; Dab = NCC[C@H](N)C(=O)O; Dap = NC[C@H](N)C(=O)O

Assays:
[1] = molecular target: T1, hNMUR2 (Homo sapiens, UniProt Q9GZQ4); assay: In vitro agonist activity for human neuromedin U receptor (intracellular calcium, Fluo-4, CHO cells stably expressing the receptor); format: cell-based; details: at a concentration of 100 nM; versus hNMUR1; selective = relative agonist activity for NMUR1 18% or less at 1000 nM and for NMUR2 48% or more at 100 nM
T1 construct: expressed in transfected cells
T1 sequence (Q9GZQ4 whole entry): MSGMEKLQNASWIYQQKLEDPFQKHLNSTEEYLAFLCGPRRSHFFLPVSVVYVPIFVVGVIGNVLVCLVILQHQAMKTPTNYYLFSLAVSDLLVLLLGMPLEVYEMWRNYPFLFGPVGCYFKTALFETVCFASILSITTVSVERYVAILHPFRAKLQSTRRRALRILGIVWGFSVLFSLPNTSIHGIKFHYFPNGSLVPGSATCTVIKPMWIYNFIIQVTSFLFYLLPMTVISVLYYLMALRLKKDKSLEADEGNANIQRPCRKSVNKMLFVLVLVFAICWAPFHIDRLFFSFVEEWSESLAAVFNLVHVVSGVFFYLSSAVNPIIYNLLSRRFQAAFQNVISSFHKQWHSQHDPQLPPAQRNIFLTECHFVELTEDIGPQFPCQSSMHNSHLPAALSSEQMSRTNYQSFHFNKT
Method: For CPN-219 which has been synthesized in Synthesis Example 1, evaluation of the agonist activity for type 1 and type 2 human neuromedin U receptor (hNMUR1 and hNMUR2) was carried out according to the following method.
CHO cells derived from Chinese hamster ovary which stably express hNMUR1 or hNMUR2 were cultured in a 5% (v/v) CO2 incubator at 37° C. by using MEM alpha (GIBCO (registered trademark), Thermo Fisher Scientific Inc.) medium containing 1 mg/mL G418 (NACALAI TESQUE, INC.), 10% (v/v) fetal bovine serum (FCS) and nucleosides (adenosine 10 mg/L, cytidine 10 mg/L, guanosine 10 mg/L, uridine 10 mg/L, 2′-deoxyadenosine 10 mg/L, 2′-deoxycytidine hydrochloride 11 mg/L, 2′-deoxyguanosine 10 mg/L, thymidine 10 mg/L).
The CHO cells were sown on a 96 well black-walled plate with clear bottom (Iwaki: AGC TECHNO GLASS CO., LTD.) at 2.0×10^4 cells per well (150 μL DMEM+10% (v/v) FBS), and then cultured for 18 hours.
(§1) After the culture, 100 μL of Fluo-4 AM (Promega Corporation) solution as a fluorescent indicator of intracellular calcium concentration was added to each well, in which the solution has been prepared such that it has the final concentration of 4 μM in assay buffer (HBSS, 10 mM HEPES, 2.5 mM probenecid, 1% (v/v) FCS: pH 7.4). After culture for 40 minutes at 37° C., the cells were washed 4 times with the assay buffer and set in a fluorometric imaging plate reader (Molecular Devices, LLC.).
The peptide as a test sample was dissolved by using dimethyl sulfoxide (DMSO) such that the stock solution is present at 20 mM, and then it was stored at 4° C. One hour before addition to the cells, by using an assay buffer added with 0.05% (v/v) bovine serum albumin (BSA) and […] Triton (registered trademark) X-100, preparation to arbitrary final concentration was made (10^−12 to 10^−6 M), and the fluorescence based on the activity of recruiting intracellular calcium by the peptide (i.e., agonist activity) was measured by using a fluorometric imaging plate reader.

[2] = Stability in phosphate buffer solution (HPLC recovery rate); format: physicochemical
Method: Peptide solution was prepared (1 mL) by using a 100 mM phosphate buffer solution (pH 7.4) so as to have the final concentration of 1 mM, and then the peptide solution was incubated for arbitrary time period (1 to 72 hours) in a water bath at 37° C. After the arbitrary time period, sampling was carried out and 20 μL of injection into high performance liquid chromatography (HPLC) (column: COSMOSIL (registered trademark) Cholester Packed Column 4.6 mmI.D.×150 mm; gradient: % B 25-35, 30 min [A: H2O-0.1% (v/v) TFA; B: MeCN]; flow rate: 1.0 mL/min; measurement wavelength: 220 nm) was made. Then, by taking the obtained area value as an indicator, the stability was analyzed from the recovery rate (%) of the compound.

[3] = Stability in rat plasma (LC/MS); format: in vitro ADME; details: 37° C.
Method: Peptide solution was added to rat plasma such that the final peptide concentration is 50 μg/mL, and then incubated for arbitrary time period (0.5 to 6 hours) at 37° C. After the arbitrary time period, sampling was carried out and high performance liquid chromatography mass spectrometry (LC/MS) was performed under the following conditions followed by stability analysis.
LC/MS System: LC-MS2020 (SHIMADZU CORPORATION)
Column: TSKgel ODS-100V (Tosoh Corporation, 3.0 μm, 2.0 mm×75 mm)
Mobile layer: 0.1% trifluoroacetic acid (pH 2.5):acetonitrile=2:1
Column temperature: 40° C.
Detection: ESI^+, m/z=425.

[4] = molecular target: T2, mNMUR2 (Mus musculus, UniProt Q8BZ39); assay: In vitro agonist activity for mouse neuromedin U receptor (intracellular calcium, Fluo-4, transfected HEK293 cells); format: cell-based; details: at a concentration of 100 nM, versus mNMUR1
T2 construct: expressed in transfected cells; host or cells: HEK293 cells (transient transfection with FuGENE6)
T2 sequence (Q8BZ39 whole entry): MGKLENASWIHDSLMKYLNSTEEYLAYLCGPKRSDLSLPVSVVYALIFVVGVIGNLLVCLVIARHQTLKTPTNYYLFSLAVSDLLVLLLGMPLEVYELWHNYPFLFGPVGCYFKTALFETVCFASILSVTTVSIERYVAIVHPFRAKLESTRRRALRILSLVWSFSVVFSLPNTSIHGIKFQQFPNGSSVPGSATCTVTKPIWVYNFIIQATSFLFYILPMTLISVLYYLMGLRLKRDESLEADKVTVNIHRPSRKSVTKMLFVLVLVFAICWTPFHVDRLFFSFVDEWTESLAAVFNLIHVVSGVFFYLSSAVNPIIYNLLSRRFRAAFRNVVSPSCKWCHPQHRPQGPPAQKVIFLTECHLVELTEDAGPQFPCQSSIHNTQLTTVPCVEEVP
Method: For CPN-219 which has been synthesized in Synthesis Example 1, evaluation of the agonist activity for type 1 and type 2 mouse neuromedin U receptor (mNMUR1 and mNMUR2) was carried out according to the following method.
HEK293 cells derived from human embryonic kidney were cultured in a 5% (v/v) CO2 incubator at 37° C. by using DMEM-high glucose (GIBCO (registered trademark), Thermo Fisher Scientific Inc.) medium containing 10% (v/v) FCS.
Cells were sown on a 100 mm dish at 5.0×10^5 cells (10 mL DMEM+10% FBS), and then cultured for 18 hours. After the culture, by using FuGENE6 (Promega Corporation), the cultured cells were transfected with an expression plasmid which encodes mNMUR1 or mNMUR2 (2.5 μg). The cells were cultured for 18 hours. […]
as §1, with “On the next” for “After the culture,”, “On the next day, 100 μL” for “After the culture, 100 μL”, “probenecid, 1% FCS: pH” for “probenecid, 1% (v/v) FCS: pH”, “Devices, LLC.). […]” for “Devices, LLC.).”

[5] = Pharmacokinetics of peptides in rat after administration via jugular vein; format: in vivo; details: Wistar rat, 500 μg/200 μL via jugular vein, 1 to 240 minutes; compared to CPN-116
Method: The peptide solution (500 μg/200 μL) was administered via jugular vein of a Wistar rat. After arbitrary time period (1 to 240 minutes), blood was taken from the femoral artery which has been subjected to cannulation in advance. According to the LC/MS analysis, pharmacokinetics of the peptide was analyzed. The LC/MS analysis was carried out under the same conditions as above.

[6] = tested on: ddy male mouse; assay: Suppression of body weight gain and food intake upon intranasal administration to a mouse; format: in vivo; details: 64 μg or 213 μg once intranasally, Day 1 to 5, versus physiological saline
Method: CPN-219, each dissolved at 64 μg or 213 μg in physiological saline (5 μL), was administered once to the nasal cavity of a ddy male mouse under anesthetization. As a control, physiological saline (5 μL) was administered once to the nasal cavity. For each administration group, the body weight of a mouse and food intake amount were measured immediately before the administration, each of Day 1 to 5 from immediately after the administration.
The body weight of a mouse was 29.0±0.83 g for the group with intranasal administration of 64 μg, or 27.7±1.29 g for the group with intranasal administration of 213 μg.

[7] = Brain delivery upon intranasal administration to a mouse; format: in vivo; details: ddY male mouse, 200 μg/5 μL intranasal, after 5 minutes; compared to CPN-116
Method: Peptide solution (200 μg/5 μL) was administered to the nasal cavity of a ddY male mouse. After 5 minutes, the animal was sacrificed and the brain tissues were collected. According to the LC/MS analysis, concentration of the peptide in plasma and brain was analyzed, and the ratio of concentration in brain compared to concentration in plasma was analyzed. The LC/MS analysis was carried out under the same conditions as above.

[8] = tested on: ddy male mouse; assay: Fluctuation in corticosterone concentration in blood; format: in vivo; details: 200 μg/5 μL intranasal, after 5 minutes
Method: Peptide solution (200 μg/5 μL) or physiological saline (5 μL) was administered, either intranasally or peritoneally, to a ddY male mouse. After 5 minutes, blood was taken from the caval vein, and corticosterone concentration in plasma was analyzed according to the LC/MS analysis. Furthermore, as a control, without administering the peptide solution (200 μg/5 μL) or physiological saline (5 μL), blood was taken […] from the caval vein, and corticosterone concentration in plasma was analyzed according to the LC/MS analysis. The LC/MS analysis was carried out under the same conditions as above.

[9] = tested on: ddy male mouse; assay: Suppression of increase in prolactin concentration in blood under restraint stress; format: in vivo; details: 200 μg/5 μL intranasal, restraint stress 20 minutes, ELISA
Method: Peptide solution (200 μg/5 μL) or physiological saline (5 μL) was administered to the nasal cavity of a ddY male mouse. After 20 minutes, restraint stress (i.e., addition to the inside of a tube) was applied for 20 minutes and blood was taken by cutting off the animal head. Then, the PLT concentration in plasma was analyzed by using Mouse Prolactin DuoSet ELISA (R&D systems).
Furthermore, for a ddY male mouse which has not been administered with the peptide solution (200 μg/5 μL) or physiological saline (5 μL), and also not applied with any stress, the PLT concentration in plasma was analyzed in the same manner as above.

[10] = 100 mM phosphate buffer solution pH 7.4, 37° C., after 48 hours
[11] = 2 hours, read-out: recovery rate in rat plasma after 2 hours

Question: Which “hNMUR2 selective agonist activity” value [1] does the source give for “3-Cyclohexylpropionyl-Leu-Leu-Dpr-Pro-Arg-Asn-NH2 ({Propanoyl(3-cHex)}-LL[Dap]PRN-NH2) [CPN-220]” here?
Answer: did not exhibit the hNMUR2 selective agonist activity; also recorded: does not show the hNMUR2 selective agonist activity

Question: What about the “converted to CPN-116 in phosphate buffer solution” value [2, 10] of the same compound?
Answer: ≥ 25%

Question: Which “hNMUR2 selective agonist activity” value [1] does the source give for “3-Cyclohexylpropionyl-Leu-Leu-Orn-Pro-Arg-Asn-NH2 ({Propanoyl(3-cHex)}-LL[Orn]PRN-NH2; SMILES CC(C)C[C@H](NC(=O)CCC1CCCCC1)C(=O)N[C@@H](CC(C)C)C(=O)N[C@@H](CCCN)C(=O)N1CCC[C@H]1C(=O)N[C@@H](CCCNC(=N)N)C(=O)N[C@@H](CC(N)=O)C(N)=O) [CPN-221]” here?
Answer: exhibited the hNMUR2 selective agonist activity

Question: With `CC(C)C[C@H](NC(=O)CCC1CCCCC1)C(=O)N[C@@H](CC(C)C)C(=O)N[C@@H](CN)C(=O)N1CCC[C@H]1C(=O)N[C@@H](CCCNC(=N)N)C(=O)N[C@@H](CC(N)=O)C(N)=O` [CPN-116, 3-Cyclohexylpropionyl-Leu-Leu-Dpr-Pro-Arg-Asn-NH2] ({Propanoyl(3-cHex)}-LL[Dap]PRN-NH2) as the compound, how does the “converted to CPN-220 in phosphate buffer solution” value [2, 10] read?
Answer: ≥ 70%

Question: And the “chemical stability (in words)” value ([2]; 100 mM phosphate buffer solution, conclusion from Test Examples 11 and 12)?
Answer: chemically unstable

Question: What about the recovery at 2 h, 50 μg/mL [3, 11] of the same compound?
Answer: ≤ 3%

Question: For `CC(C)C[C@H](NC(=O)CCC1CCCCC1)C(=O)N[C@@H](CC(C)C)C(=O)N[C@@H](CCN)C(=O)N1CCC[C@H]1C(=O)N[C@@H](CCCNC(=N)N)C(=O)N[C@@H](CC(N)=O)C(N)=O` [CPN-219, 3-Cyclohexylpropionyl-Leu-Leu-Dbu-Pro-Arg-Asn-NH2] ({Propanoyl(3-cHex)}-LL[Dab]PRN-NH2), which “hNMUR2 selective agonist activity” value [1] is on record?
Answer: exhibited the NMUR2 selective agonist activity

Question: What about the “mNMUR2 selective agonist activity” value [4] of the same compound?
Answer: exhibited the mNMUR2 selective agonist activity

Question: What about the recovery at 2 hours, 50 μg/mL [3, 11] of the same compound?
Answer: ≥ 80%

Question: What about the recovery at 6 hours, 50 μg/mL ([3]; 6 hours, read-out: recovery rate in rat plasma after 6 hours) of the same compound?
Answer: ≥ 60%

Question: What about the “pharmacokinetics in rat blood” value [5] of the same compound?
Answer: more favorable pharmacokinetics in rat blood

Question: What about the “body weight gain of a mouse” value [6] of the same compound?
Answer: significantly suppressed the body weight gain

Question: What about the “food intake of a mouse” value [6] of the same compound?
Answer: significantly suppressed

Question: What about the “brain delivery (ratio of concentration in brain to concentration in plasma; transfer to olfactory bulb)” value [7] of the same compound?
Answer: more favorable transfer to an olfactory bulb

Question: What about the “corticosterone concentration in blood” value [8] of the same compound?
Answer: significantly increased the corticosterone concentration in blood

Question: What about the “prolactin secretion (PLT concentration in plasma)” value [9] of the same compound?
Answer: suppresses the prolactin secretion
